# Measurements published in patent publication US11981686B2, “Urea compound having substituent” (DAIICHI SANKYO COMPANY, LIMITED, priority 2019, dated 2024).
# Molecular target: SIRT6 enzyme (Homo sapiens, UniProt Q8N6T7)
# Experiment: Measurement of deacetylation activity (SIRT6, AlphaLISA, H3K9(Ac) peptide)
# Assay type: biochemical
# Conditions: SIRT6 25 ng/mL, H3K9(Ac) biotin peptide 2 nM, NAD 10 μM, room temperature 30 minutes, duplicate
# In short: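 SIRT6 (25 ng/mL final) in Tris-HCl pH 8.0 buffer with compound (e.g. 0.046–100 μM final) reacted with biotin-H3K9(Ac) peptide (2 nM) and NAD+ (10 μM), 30 min, room temperature. Stopped with nicotinamide plus AlphaLISA anti-unmodified H3K9/K27 beads, 60 min; EC150 (150% relative activity) from sigmoidal fit.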
# Sequence of SIRT6 enzyme (Q8N6T7 whole entry, species assumed): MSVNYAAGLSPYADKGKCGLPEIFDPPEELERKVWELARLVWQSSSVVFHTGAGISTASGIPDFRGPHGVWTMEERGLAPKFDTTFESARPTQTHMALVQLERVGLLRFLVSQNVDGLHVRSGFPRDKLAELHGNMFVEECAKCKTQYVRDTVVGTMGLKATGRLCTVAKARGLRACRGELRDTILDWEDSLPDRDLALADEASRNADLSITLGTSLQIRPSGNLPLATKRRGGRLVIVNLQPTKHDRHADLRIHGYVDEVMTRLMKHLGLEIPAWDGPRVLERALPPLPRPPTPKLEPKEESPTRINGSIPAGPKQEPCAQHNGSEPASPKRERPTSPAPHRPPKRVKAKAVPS
row,Structure (SMILES),EC150 (the concentration of the compound showing a relative enzyme activity of 150%)
1,"Cn1cnc(CNC(=O)Nc2nc3c(s2)CN(c2nc(C4CCC(F)(F)CC4)no2)CC3)n1 [Example 106, N-{5-[3-(4,4-difluorocyclohexyl)-1,2,4-oxadiazol-5-yl]-4,5,6,7-tetrahydro[1,3]thiazolo[5,4-c]pyridin-2-yl}-N′-[(1-methyl-1H-1,2,4-triazol-3-yl)methyl]urea]",2.4 μm
2,"CNC(=O)Nc1nc2c(s1)C1CN(C(=O)OC)CC(C2)N1c1nc(C2CCC(F)(F)C2)no1 (stereo not drawn) [Example 131, Methyl 10-[3-(3,3-difluorocyclopentyl)-1,2,4-oxadiazol-5-yl]-2-[(methylcarbamoyl)amino]-4,7,8,9-tetrahydro-4,8-epimino[1,3]thiazolo[5,4-d]azocin-6(5H)-carboxylate]",1.4 μm
3,"C[C@@H](O)CNC(=O)Nc1nc2c(s1)C1COCC(C2)N1c1nc(-c2ccc(F)cc2)no1 (stereo partly drawn) [Example 82, N-{10-[3-(4-fluorophenyl)-1,2,4-oxadiazol-5-yl]-4,7,8,9-tetrahydro-5H-4,8-epiminooxocino[5,4-d][1,3]thiazol-2-yl}-N′-[(2R)-2-hydroxypropyl]urea]",1.7 μm
4,"COc1ccc2oc(N3[C@@H]4COC[C@H]3c3sc(NC(=O)NCC(C)(C)O)nc3C4)nc2c1 [Example 46, N-(2-hydroxy-2-methylpropyl)-N′-[(4S,8S)-10-(5-methoxy-1,3-benzoxazol-2-yl)-4,7,8,9-tetrahydro-5H-4,8-epiminooxocino[5,4-d][1,3]thiazol-2-yl]urea]",2.1 μm
5,"CNC(=O)Nc1nc2c(s1)C1COCC(C2)N1c1nnc(-c2cccc(C(=O)C3CCC3)c2)o1 (stereo not drawn) [Example 113, N-(10-{5-[3-(cyclobutanecarbonyl)phenyl]-1,3,4-oxadiazol-2-yl}-4,7,8,9-tetrahydro-5H-4,8-epiminooxocino[5,4-d][1,3]thiazol-2-yl)-N′-methylurea]",2.6 μm
6,"CC(C)(CO)NC(=O)Nc1nc2c(s1)[C@@H]1COC[C@H](C2)N1c1ncc(-c2cccc(OC(F)F)c2)o1 [Example 170, N-[(4S,8S)-10-{5-[3-(difluoromethoxy)phenyl]-1,3-oxazol-2-yl}-4,7,8,9-tetrahydro-5H-4,8-epiminooxocino[5,4-d][1,3]thiazol-2-yl]-N′-(1-hydroxy-2-methylpropan-2-yl)urea]",1.2 μm
7,"C[C@@H](CO)NC(=O)Nc1nc2c(s1)[C@@H]1COC[C@H](C2)N1c1ncc(-c2cccc(OC(F)F)n2)o1 [Example 169, N-[(4S,8S)-10-{5-[6-(difluoromethoxy)pyridin-2-yl]-1,3-oxazol-2-yl}-4,7,8,9-tetrahydro-5H-4,8-epiminooxocino[5,4-d][1,3]thiazol-2-yl]-N′-[(2S)-1-hydroxypropan-2-yl]urea]",0.66 μm
8,"C[C@H](CO)NC(=O)Nc1nc2c(s1)CN(c1nc(C(C)(C)OCC(F)(F)F)no1)CC2 [Example 91, N-[(2R)-1-hydroxypropan-2-yl]-N′-(5-{3-[2-(2,2,2-trifluoroethoxy)propan-2-yl]-1,2,4-oxadiazol-5-yl}-4,5,6,7-tetrahydro[1,3]thiazolo[5,4-c]pyridin-2-yl)urea]",0.81 μm
9,"COc1ccc2oc(N3[C@@H]4COC[C@H]3c3sc(NC(=O)N[C@H]5CCOC5)nc3C4)nc2c1 [Example 151, N-[(4S,8S)-10-(5-methoxy-1,3-benzoxazol-2-yl)-4,7,8,9-tetrahydro-5H-4,8-epiminooxocino[5,4-d][1,3]thiazol-2-yl]-N′-[(3S)-oxolan-3-yl]urea]",0.78 μm
10,"O=C(NCC1(O)CC1)Nc1nc2c(s1)CN(c1nc(C3CCC(F)(F)CC3)no1)CC2 [Example 104, N-{5-[3-(4,4-difluorocyclohexyl)-1,2,4-oxadiazol-5-yl]-4,5,6,7-tetrahydro[1,3]thiazolo[5,4-c]pyridin-2-yl}-N′-[(1-hydroxycyclopropyl)methyl]urea]",1.6 μm
11,"CNC(=O)Nc1nc2c(s1)[C@@H]1COC[C@H](C2)N1c1nnc(-c2cccc(OC)c2)o1 [Example 120, N-{(4S,8S)-10-[5-(3-methoxyphenyl)-1,3,4-oxadiazol-2-yl]-4,7,8,9-tetrahydro-5H-4,8-epiminooxocino[5,4-d][1,3]thiazol-2-yl}-N′-methylurea]",2.4 μm
12,"C[C@H](CO)NC(=O)Nc1nc2c(s1)CN(c1nc(C3CCCC(F)(F)C3)no1)CC2 (stereo partly drawn) [Example 87, N-{5-[3-(3,3-difluorocyclohexyl)-1,2,4-oxadiazol-5-yl]-4,5,6,7-tetrahydro[1,3]thiazolo[5,4-c]pyridin-2-yl}-N′-[(2R)-1-hydroxypropan-2-yl]urea]",2.1 μm
13,"C[C@H](CO)NC(=O)Nc1nc2c(s1)[C@@H]1COC[C@H](C2)N1c1ncc(-c2cccc(OC(F)F)n2)o1 [Example 66, N-[(4S,8S)-10-{5-[6-(difluoromethoxy)pyridin-2-yl]-1,3-oxazol-2-yl}-4,7,8,9-tetrahydro-5H-4,8-epiminooxocino[5,4-d][1,3]thiazol-2-yl]-N′-[(2R)-1-hydroxypropan-2-yl]urea]",0.39 μm
14,"CC(=O)N1CC(NC(=O)Nc2nc3c(s2)[C@@H]2COC[C@H](C3)N2c2ncc(-c3cccc(OC(F)F)n3)o2)C1 [Example 183, N-(1-acetylazetidin-3-yl)-N′-[(4S,8S)-10-{5-[6-(difluoromethoxy)pyridin-2-yl]-1,3-oxazol-2-yl}-4,7,8,9-tetrahydro-5H-4,8-epiminooxocino[5,4-d][1,3]thiazol-2-yl]urea]",0.24 μm
15,"COc1cccc(-c2cc(N3[C@@H]4COC[C@H]3c3sc(NC(=O)N[C@@H]5CCOC5)nc3C4)no2)n1 [Example 163, N-{(4S,8S)-10-[5-(6-methoxypyridin-2-yl)-1,2-oxazol-3-yl]-4,7,8,9-tetrahydro-5H-4,8-epiminooxocino[5,4-d][1,3]thiazol-2-yl}-N′-[(3R)-oxolan-3-yl]urea]",1.6 μm
16,"CNC(=O)Nc1nc2c(s1)C1CN(C(C)=O)CC(C2)N1c1nc(-c2cccc(F)c2)no1 (stereo not drawn) [Example 138, N-{6-acetyl-10-[3-(3-fluorophenyl)-1,2,4-oxadiazol-5-yl]-4,5,6,7,8,9-hexahydro-4,8-epimino[1,3]thiazolo[5,4-d]azocin-2-yl}-N′-methylurea]",0.46 μm
17,"CC(C)(CO)NC(=O)Nc1nc2c(s1)[C@@H]1COC[C@H](C2)N1c1ncc(-c2cccc(C(F)F)c2)o1 [Example 69, N-[(4S,8S)-10-{5-[3-(difluoromethyl)phenyl]-1,3-oxazol-2-yl}-4,7,8,9-tetrahydro-5H-4,8-epiminooxocino[5,4-d][1,3]thiazol-2-yl]-N′-(1-hydroxy-2-methylpropan-2-yl)urea]",0.59 μm
18,"CC(=O)N1CC[C@@H](NC(=O)Nc2nc3c(s2)[C@@H]2COC[C@H](C3)N2c2ncc(-c3cccc(OC(F)F)n3)o2)C1 [Example 182, N-[(3R)-1-acetylpyrrolidin-3-yl]-N′-[(4S,8S)-10-{5-[6-(difluoromethoxy)pyridin-2-yl]-1,3-oxazol-2-yl}-4,7,8,9-tetrahydro-5H-4,8-epiminooxocino[5,4-d][1,3]thiazol-2-yl]urea]",0.16 μm
19,"CNC(=O)Nc1nc2c(s1)C1CN(S(C)(=O)=O)CC(C2)N1c1nc(-c2ccc(F)cc2)no1 (stereo not drawn) [Example 31, N-{10-[3-(4-fluorophenyl)-1,2,4-oxadiazol-5-yl]-6-(methanesulfonyl)-4,5,6,7,8,9-hexahydro-4,8-epimino[1,3]thiazolo[5,4-d]azocin-2-yl}-N′-methylurea]",2.5 μm
20,"CC(C)NC(=O)Nc1nc2c(s1)[C@@H]1COC[C@H](C2)N1c1nc2cc(S(C)(=O)=O)ccc2o1 [Example 50, N-{(4S,8S)-10-[5-(methanesulfonyl)-1,3-benzoxazol-2-yl]-4,7,8,9-tetrahydro-5H-4,8-epiminooxocino[5,4-d][1,3]thiazol-2-yl}-N′-propan-2-ylurea]",1.5 μm
21,"CC(=O)N1CC2Cc3nc(NC(=O)N[C@@H]4CCOC4)sc3C(C1)N2c1nc(-c2ccc(F)cc2)no1 (stereo partly drawn) [Example 140, N-{6-acetyl-10-[3-(4-fluorophenyl)-1,2,4-oxadiazol-5-yl]-4,5,6,7,8,9-hexahydro-4,8-epimino[1,3]thiazolo[5,4-d]azocin-2-yl}-N′-[(3R)-oxolan-3-yl]urea]",0.16 μm
22,"O=C(NCc1nnc[nH]1)Nc1nc2c(s1)CN(c1nc(C3CCC(F)(F)CC3)no1)CC2 [Example 102, N-{5-[3-(4,4-difluorocyclohexyl)-1,2,4-oxadiazol-5-yl]-4,5,6,7-tetrahydro[1,3]thiazolo[5,4-c]pyridin-2-yl}-N′-[(4H-1,2,4-triazol-3-yl)methyl]urea]",0.33 μm
23,"COc1cccc(-c2cc(N3[C@@H]4COC[C@H]3c3sc(NC(=O)N[C@@H]5CCOC5)nc3C4)no2)c1 [Example 164, N-{(4S,8S)-10-[5-(3-methoxyphenyl)-1,2-oxazol-3-yl]-4,7,8,9-tetrahydro-5H-4,8-epiminooxocino[5,4-d][1,3]thiazol-2-yl}-N′-[(3R)-oxolan-3-yl]urea]",2.6 μm
24,"O=C(Nc1nc2c(s1)[C@@H]1COC[C@H](C2)N1c1cc(-c2ccc(F)cc2)on1)NC1CCS(=O)(=O)CC1 [Example 165, N-(1,1-dioxo-1λ^6-thian-4-yl)-N′-{(4S,8S)-10-[5-(4-fluorophenyl)-1,2-oxazol-3-yl]-4,7,8,9-tetrahydro-5H-4,8-epiminooxocino[5,4-d][1,3]thiazol-2-yl}urea]",0.41 μm
